Assay results as given in the kinase profiling compilation of Christmann-Franck et al. (2016).

Tests used:
Assay in all cases: radiometric filter-binding kinase assay
BTK (human) = BTK (human) (UniProt Q06187)
MAPK13 (human) = MAPK13 (human) (UniProt O15264)
PAK4 (human) = PAK4 (human) (UniProt O96013)
TAOK1 (human) = TAOK1 (human) (UniProt Q7L7X3)
EPHB3 (human) = EPHB3 (human) (UniProt P54753); conditions: compound 10.0 µM
MAPKAPK5 (human) = MAPKAPK5 (human) (UniProt Q8IW41)
DYRK3 (human) = DYRK3 (human) (UniProt O43781)
MAP3K9 (human) = MAP3K9 (human) (UniProt P80192)
EPHB1 (human) = EPHB1 (human) (UniProt P54762)
MARK3 (human) = MARK3 (human) (UniProt P27448)
PAK7 (human) = PAK7 (human) (UniProt Q9P286)
Chain of PAK7 (human) (Q9P286 whole entry, looked up): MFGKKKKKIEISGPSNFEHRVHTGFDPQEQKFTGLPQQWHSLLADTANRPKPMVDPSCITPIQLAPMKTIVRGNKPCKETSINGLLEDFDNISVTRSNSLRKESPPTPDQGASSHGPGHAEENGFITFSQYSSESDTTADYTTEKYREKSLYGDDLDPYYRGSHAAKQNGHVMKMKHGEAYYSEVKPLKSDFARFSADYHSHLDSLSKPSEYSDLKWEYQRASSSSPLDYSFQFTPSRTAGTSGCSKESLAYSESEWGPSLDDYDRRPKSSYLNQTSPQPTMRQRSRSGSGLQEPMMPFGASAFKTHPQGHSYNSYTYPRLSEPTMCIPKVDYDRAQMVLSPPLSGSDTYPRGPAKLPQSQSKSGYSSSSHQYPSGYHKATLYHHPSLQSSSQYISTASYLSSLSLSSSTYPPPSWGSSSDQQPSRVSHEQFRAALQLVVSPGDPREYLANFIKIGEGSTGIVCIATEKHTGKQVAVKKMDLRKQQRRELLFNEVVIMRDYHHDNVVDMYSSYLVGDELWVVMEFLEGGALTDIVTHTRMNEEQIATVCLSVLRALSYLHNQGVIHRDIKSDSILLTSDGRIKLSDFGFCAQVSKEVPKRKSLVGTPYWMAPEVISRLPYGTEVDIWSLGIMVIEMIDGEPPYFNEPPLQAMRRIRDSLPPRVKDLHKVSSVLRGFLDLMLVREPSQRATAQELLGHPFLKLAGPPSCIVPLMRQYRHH

DYRK1A (human) = DYRK1A (human) (UniProt Q13627)
PRKCZ (human) = PRKCZ (human) (UniProt Q05513)
IKBKE (human) = IKBKE (human) (UniProt Q14164)
Chain of IKBKE (human) (Q14164 whole entry, looked up): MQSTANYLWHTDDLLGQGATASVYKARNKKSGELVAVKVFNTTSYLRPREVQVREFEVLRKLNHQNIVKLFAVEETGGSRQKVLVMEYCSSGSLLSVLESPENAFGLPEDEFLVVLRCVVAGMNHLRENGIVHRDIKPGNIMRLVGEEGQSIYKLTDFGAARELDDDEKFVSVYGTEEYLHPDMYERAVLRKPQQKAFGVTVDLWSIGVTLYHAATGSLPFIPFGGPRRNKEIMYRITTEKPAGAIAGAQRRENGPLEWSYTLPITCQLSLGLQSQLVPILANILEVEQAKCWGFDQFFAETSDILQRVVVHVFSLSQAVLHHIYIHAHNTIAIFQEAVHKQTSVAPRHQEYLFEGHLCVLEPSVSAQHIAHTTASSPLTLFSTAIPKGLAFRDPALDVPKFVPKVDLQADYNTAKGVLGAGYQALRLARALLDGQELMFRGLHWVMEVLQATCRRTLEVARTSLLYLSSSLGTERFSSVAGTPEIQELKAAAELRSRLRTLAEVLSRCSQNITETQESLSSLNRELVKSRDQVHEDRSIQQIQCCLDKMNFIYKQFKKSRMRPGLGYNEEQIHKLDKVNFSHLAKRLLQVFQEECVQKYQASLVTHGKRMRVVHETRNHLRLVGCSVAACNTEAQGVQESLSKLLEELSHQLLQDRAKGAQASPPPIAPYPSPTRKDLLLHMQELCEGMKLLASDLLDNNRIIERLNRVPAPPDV

[1] = system: AKT1 (human), P31749 [S473D]
LCK (mouse) = conditions: accession and sequence are those of the human protein
DYRK2 (human) = DYRK2 (human) (UniProt Q92630)
Chain of DYRK2 (human) (Q92630 whole entry, looked up): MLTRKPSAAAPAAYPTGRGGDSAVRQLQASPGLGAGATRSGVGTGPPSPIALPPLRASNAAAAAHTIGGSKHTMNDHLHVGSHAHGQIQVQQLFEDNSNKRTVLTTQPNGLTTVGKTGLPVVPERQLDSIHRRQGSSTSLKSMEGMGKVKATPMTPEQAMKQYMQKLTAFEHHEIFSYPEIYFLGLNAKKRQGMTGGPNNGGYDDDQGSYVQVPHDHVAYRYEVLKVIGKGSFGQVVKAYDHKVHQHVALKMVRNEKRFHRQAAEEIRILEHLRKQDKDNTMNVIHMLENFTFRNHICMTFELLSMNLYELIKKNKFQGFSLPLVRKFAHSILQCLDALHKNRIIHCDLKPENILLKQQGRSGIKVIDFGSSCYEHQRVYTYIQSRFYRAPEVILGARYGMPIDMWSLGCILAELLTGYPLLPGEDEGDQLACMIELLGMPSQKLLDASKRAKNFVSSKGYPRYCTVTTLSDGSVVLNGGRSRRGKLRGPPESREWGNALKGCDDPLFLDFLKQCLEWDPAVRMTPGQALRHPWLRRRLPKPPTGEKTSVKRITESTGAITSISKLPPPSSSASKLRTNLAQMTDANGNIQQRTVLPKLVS

NEK6 (human) = NEK6 (human) (UniProt Q9HC98)
Chain of NEK6 (human) (Q9HC98 whole entry, looked up): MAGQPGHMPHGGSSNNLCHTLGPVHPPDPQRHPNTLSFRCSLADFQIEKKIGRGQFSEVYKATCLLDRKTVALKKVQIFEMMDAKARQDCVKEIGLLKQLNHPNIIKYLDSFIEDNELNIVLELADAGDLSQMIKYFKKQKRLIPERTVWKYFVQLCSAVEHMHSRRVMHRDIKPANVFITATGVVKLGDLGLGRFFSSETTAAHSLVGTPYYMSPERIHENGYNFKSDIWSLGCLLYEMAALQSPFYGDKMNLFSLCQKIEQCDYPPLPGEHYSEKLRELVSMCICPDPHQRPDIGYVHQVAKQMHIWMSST

MST4 (human) = MST4 (human) (UniProt Q9P289)
MAP2K6 (human) = MAP2K6 (human) (UniProt P52564)
CSNK2A1 (human) = CSNK2A1 (human) (UniProt P68400)
Chain of CSNK2A1 (human) (P68400 whole entry, looked up): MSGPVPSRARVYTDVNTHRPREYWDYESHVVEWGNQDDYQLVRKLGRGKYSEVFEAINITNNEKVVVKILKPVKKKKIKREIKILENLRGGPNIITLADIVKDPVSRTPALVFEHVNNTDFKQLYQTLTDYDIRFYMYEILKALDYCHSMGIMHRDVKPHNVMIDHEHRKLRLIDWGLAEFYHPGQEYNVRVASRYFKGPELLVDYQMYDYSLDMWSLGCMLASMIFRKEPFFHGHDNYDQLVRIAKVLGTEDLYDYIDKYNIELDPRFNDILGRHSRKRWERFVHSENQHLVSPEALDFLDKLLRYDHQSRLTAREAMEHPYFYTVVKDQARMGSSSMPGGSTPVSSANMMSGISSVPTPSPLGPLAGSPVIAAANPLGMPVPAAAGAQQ

MAPK11 (human) = MAPK11 (human) (UniProt Q15759)
PAK6 (human) = PAK6 (human) (UniProt Q9NQU5)
Chain of PAK6 (human) (Q9NQU5 whole entry, looked up): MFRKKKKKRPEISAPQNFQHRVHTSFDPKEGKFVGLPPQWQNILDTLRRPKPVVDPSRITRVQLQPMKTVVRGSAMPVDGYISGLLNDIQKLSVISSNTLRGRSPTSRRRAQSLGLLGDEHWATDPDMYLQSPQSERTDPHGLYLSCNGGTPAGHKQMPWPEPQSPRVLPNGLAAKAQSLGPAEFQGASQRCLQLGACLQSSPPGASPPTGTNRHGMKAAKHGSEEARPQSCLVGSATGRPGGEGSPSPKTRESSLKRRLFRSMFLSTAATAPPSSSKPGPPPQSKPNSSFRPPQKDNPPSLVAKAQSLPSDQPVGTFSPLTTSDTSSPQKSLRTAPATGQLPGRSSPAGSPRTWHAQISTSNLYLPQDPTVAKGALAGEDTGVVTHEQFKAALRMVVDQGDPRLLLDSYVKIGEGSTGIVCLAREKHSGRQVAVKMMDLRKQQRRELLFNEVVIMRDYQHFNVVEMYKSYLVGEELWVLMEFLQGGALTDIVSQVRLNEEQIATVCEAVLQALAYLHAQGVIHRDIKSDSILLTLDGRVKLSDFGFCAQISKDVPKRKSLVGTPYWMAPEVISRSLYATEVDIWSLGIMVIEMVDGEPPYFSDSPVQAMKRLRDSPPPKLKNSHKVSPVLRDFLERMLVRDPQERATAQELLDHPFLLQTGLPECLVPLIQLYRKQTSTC

MARK1 (human) = MARK1 (human) (UniProt Q9P0L2)
HIPK1 (human) = HIPK1 (human) (UniProt Q86Z02)
ERBB4 (human) = ERBB4 (human) (UniProt Q15303); conditions: compound 10.0 µM
CaMK1 (human) = CaMK1 (human) (UniProt Q14012)
Chain of CaMK1 (human) (Q14012 whole entry, looked up): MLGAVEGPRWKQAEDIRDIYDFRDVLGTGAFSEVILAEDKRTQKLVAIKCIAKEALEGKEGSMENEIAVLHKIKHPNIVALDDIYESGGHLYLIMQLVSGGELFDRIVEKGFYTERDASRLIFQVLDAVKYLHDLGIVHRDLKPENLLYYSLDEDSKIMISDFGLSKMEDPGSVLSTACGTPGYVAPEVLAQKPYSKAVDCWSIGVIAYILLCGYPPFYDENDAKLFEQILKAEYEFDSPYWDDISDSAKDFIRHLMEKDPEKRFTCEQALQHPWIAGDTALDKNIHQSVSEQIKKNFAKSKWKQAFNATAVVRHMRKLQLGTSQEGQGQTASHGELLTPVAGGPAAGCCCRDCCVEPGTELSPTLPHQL

EEF2K (human) = EEF2K (human) (UniProt O00418)
EPHA2 (human) = EPHA2 (human) (UniProt P29317); conditions: compound 10.0 µM
HIPK3 (human) = HIPK3 (human) (UniProt Q9H422); conditions: compound 10.0 µM
RPS6KA5 KD1 KD2 (human) = RPS6KA5 KD1 KD2 (human) (UniProt O75582)
DAPK1 (human) = DAPK1 (human) (UniProt P53355)
ROCK2 (rat) = conditions: accession and sequence are those of the human protein
MAPK14 (human) = MAPK14 (human) (UniProt Q16539)
NUAK1 (human) = NUAK1 (human) (UniProt O60285)
HIPK2 (human) = HIPK2 (human) (UniProt Q9H2X6)

Chain of MAPKAPK5 (human) (Q8IW41 whole entry, looked up): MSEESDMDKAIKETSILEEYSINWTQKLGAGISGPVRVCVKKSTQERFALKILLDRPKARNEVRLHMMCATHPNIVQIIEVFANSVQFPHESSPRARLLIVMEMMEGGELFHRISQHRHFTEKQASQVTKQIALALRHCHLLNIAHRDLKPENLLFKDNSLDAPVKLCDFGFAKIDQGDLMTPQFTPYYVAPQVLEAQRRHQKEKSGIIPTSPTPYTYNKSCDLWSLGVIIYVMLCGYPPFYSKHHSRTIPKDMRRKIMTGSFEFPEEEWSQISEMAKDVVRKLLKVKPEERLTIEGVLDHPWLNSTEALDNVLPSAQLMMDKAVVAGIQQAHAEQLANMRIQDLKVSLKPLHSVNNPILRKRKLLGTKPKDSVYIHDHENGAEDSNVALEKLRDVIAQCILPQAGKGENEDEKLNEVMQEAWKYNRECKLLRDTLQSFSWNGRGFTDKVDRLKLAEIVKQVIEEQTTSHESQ
Chain of BTK (human) (Q06187 whole entry, looked up): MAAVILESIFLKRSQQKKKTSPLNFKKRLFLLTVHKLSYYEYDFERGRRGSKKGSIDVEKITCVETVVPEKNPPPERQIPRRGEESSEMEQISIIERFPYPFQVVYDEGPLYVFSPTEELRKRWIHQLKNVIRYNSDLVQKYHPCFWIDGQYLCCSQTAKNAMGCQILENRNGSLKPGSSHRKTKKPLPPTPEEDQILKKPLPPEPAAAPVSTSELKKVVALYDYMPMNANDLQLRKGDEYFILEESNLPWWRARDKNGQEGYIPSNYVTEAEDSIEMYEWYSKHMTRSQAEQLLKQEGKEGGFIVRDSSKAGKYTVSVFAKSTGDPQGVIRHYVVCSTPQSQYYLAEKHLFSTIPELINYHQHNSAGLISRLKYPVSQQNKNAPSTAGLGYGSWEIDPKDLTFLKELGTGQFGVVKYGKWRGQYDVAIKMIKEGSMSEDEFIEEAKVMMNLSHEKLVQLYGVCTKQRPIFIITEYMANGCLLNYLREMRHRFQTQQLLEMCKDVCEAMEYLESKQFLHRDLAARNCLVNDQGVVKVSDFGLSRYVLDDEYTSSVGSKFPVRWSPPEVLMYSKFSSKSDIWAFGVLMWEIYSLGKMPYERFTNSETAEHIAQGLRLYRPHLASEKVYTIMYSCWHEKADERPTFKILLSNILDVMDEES

SMILES: CCOC(=O)c1ccc(N2NC(=O)/C(=C/c3ccc([N+](=O)[O-])o3)C2=O)cc1
- residual activity (BTK (human); compound 10.0 µM): 70%
- residual activity (MAPK13 (human); compound 10.0 µM): 106%
- residual activity (PAK4 (human); compound 10.0 µM): 55%
- residual activity (TAOK1 (human); compound 10.0 µM): 126%
- residual activity (EPHB3 (human)): 100%
- residual activity (MAPKAPK5 (human); compound 10.0 µM): 97%
- residual activity (DYRK3 (human); compound 10.0 µM): 55%
- residual activity (MAP3K9 (human); compound 10.0 µM): 78%
- residual activity (EPHB1 (human); compound 10.0 µM): 85%
- residual activity (MARK3 (human); compound 10.0 µM): 84%
- residual activity (PAK7 (human); compound 10.0 µM): 118%
- residual activity (DYRK1A (human); compound 10.0 µM): 70%
- residual activity (PRKCZ (human); compound 10.0 µM): 112%
- residual activity (IKBKE (human); compound 10.0 µM): 156%
- residual activity ([1]; compound 10.0 µM): 79%
- residual activity (LCK (mouse); compound 10.0 µM): 121%
- residual activity (DYRK2 (human); compound 10.0 µM): 54%
- residual activity (NEK6 (human); compound 10.0 µM): 106%
- residual activity (MST4 (human); compound 10.0 µM): 87%
- residual activity (MAP2K6 (human); compound 10.0 µM): 87%
- residual activity (CSNK2A1 (human); compound 10.0 µM): 106%
- residual activity (MAPK11 (human); compound 10.0 µM): 113%
- residual activity (PAK6 (human); compound 10.0 µM): 133%
- residual activity (MARK1 (human); compound 10.0 µM): 62%
- residual activity (HIPK1 (human); compound 10.0 µM): 98%
- residual activity (ERBB4 (human)): 91%
- residual activity (CaMK1 (human); compound 10.0 µM): 102%
- residual activity (EEF2K (human); compound 10.0 µM): 97%
- residual activity (EPHA2 (human)): 90%
- residual activity (HIPK3 (human)): 103%
- residual activity (RPS6KA5 KD1 KD2 (human); compound 10.0 µM): 62%
- residual activity (DAPK1 (human); compound 10.0 µM): 112%
- residual activity (ROCK2 (rat); compound 10.0 µM): 91%
- residual activity (MAPK14 (human); compound 10.0 µM): 105%

SMILES: Nc1cccc2c1CN(C1CCC(=O)NC1=O)C2=O (stereo unspecified)
- residual activity (BTK (human); compound 1.0 µM): 104%
- residual activity (BTK (human); compound 10.0 µM): 107%
- residual activity (MAPK13 (human); compound 1.0 µM): 109%
- residual activity (MAPK13 (human); compound 10.0 µM): 123%
- residual activity (PAK4 (human); compound 1.0 µM): 102%
- residual activity (PAK4 (human); compound 10.0 µM): 107%
- residual activity (TAOK1 (human); compound 1.0 µM): 106%
- residual activity (TAOK1 (human); compound 10.0 µM): 96%
- residual activity (EPHB3 (human)): 102%
- residual activity (MAPKAPK5 (human); compound 1.0 µM): 86%
- residual activity (MAPKAPK5 (human); compound 10.0 µM): 87%
- residual activity (DYRK3 (human); compound 1.0 µM): 104%
- residual activity (DYRK3 (human); compound 10.0 µM): 99%
- residual activity (MAP3K9 (human); compound 1.0 µM): 99%
- residual activity (MAP3K9 (human); compound 10.0 µM): 99%
- residual activity (EPHB1 (human); compound 1.0 µM): 115%
- residual activity (EPHB1 (human); compound 10.0 µM): 126%
- residual activity (MARK3 (human); compound 1.0 µM): 91%
- residual activity (MARK3 (human); compound 10.0 µM): 94%
- residual activity (NUAK1 (human); compound 1.0 µM): 99%
- residual activity (PAK7 (human); compound 1.0 µM): 86%
- residual activity (PAK7 (human); compound 10.0 µM): 77%
- residual activity (DYRK1A (human); compound 1.0 µM): 107%
- residual activity (DYRK1A (human); compound 10.0 µM): 99%
- residual activity (PRKCZ (human); compound 1.0 µM): 100%
- residual activity (PRKCZ (human); compound 10.0 µM): 108%
- residual activity (IKBKE (human); compound 1.0 µM): 119%
- residual activity (IKBKE (human); compound 10.0 µM): 99%
- residual activity ([1]; compound 1.0 µM): 88%
- residual activity ([1]; compound 10.0 µM): 91%
- residual activity (LCK (mouse); compound 1.0 µM): 100%
- residual activity (LCK (mouse); compound 10.0 µM): 99%
- residual activity (DYRK2 (human); compound 1.0 µM): 101%
- residual activity (DYRK2 (human); compound 10.0 µM): 103%
- residual activity (NEK6 (human); compound 1.0 µM): 105%
- residual activity (NEK6 (human); compound 10.0 µM): 96%
- residual activity (MST4 (human); compound 1.0 µM): 106%
- residual activity (MST4 (human); compound 10.0 µM): 112%
- residual activity (MAP2K6 (human); compound 1.0 µM): 93%
- residual activity (MAP2K6 (human); compound 10.0 µM): 100%
- residual activity (HIPK2 (human); compound 1.0 µM): 107%
- residual activity (HIPK2 (human); compound 10.0 µM): 103%
- residual activity (CSNK2A1 (human); compound 1.0 µM): 106%
- residual activity (CSNK2A1 (human); compound 10.0 µM): 93%
- residual activity (MAPK11 (human); compound 1.0 µM): 96%
- residual activity (MAPK11 (human); compound 10.0 µM): 106%
- residual activity (PAK6 (human); compound 1.0 µM): 102%
- residual activity (PAK6 (human); compound 10.0 µM): 104%
- residual activity (MARK1 (human); compound 1.0 µM): 98%
- residual activity (MARK1 (human); compound 10.0 µM): 100%
- residual activity (HIPK1 (human); compound 1.0 µM): 92%
- residual activity (HIPK1 (human); compound 10.0 µM): 101%
- residual activity (ERBB4 (human)): 106%
- residual activity (CaMK1 (human); compound 1.0 µM): 103%
- residual activity (CaMK1 (human); compound 10.0 µM): 91%
- residual activity (EEF2K (human); compound 1.0 µM): 94%
- residual activity (EEF2K (human); compound 10.0 µM): 82%
- residual activity (EPHA2 (human)): 96%
- residual activity (RPS6KA5 KD1 KD2 (human); compound 1.0 µM): 91%
- residual activity (DAPK1 (human); compound 1.0 µM): 95%
- residual activity (DAPK1 (human); compound 10.0 µM): 104%
- residual activity (ROCK2 (rat); compound 1.0 µM): 90%
- residual activity (ROCK2 (rat); compound 10.0 µM): 88%
- residual activity (MAPK14 (human); compound 1.0 µM): 105%
- residual activity (MAPK14 (human); compound 10.0 µM): 103%

SMILES: O=S(=O)(c1ccc(F)c2nonc12)N1CCN(c2ncc(C(F)(F)F)cc2Cl)CC1
- residual activity (BTK (human); compound 10.0 µM): 86%
- residual activity (MAPK13 (human); compound 10.0 µM): 85%
- residual activity (PAK4 (human); compound 10.0 µM): 83%
- residual activity (TAOK1 (human); compound 10.0 µM): 98%
- residual activity (EPHB3 (human)): 86%
- residual activity (MAPKAPK5 (human); compound 10.0 µM): 85%
- residual activity (DYRK3 (human); compound 10.0 µM): 91%
- residual activity (MAP3K9 (human); compound 10.0 µM): 108%
- residual activity (EPHB1 (human); compound 10.0 µM): 117%
- residual activity (MARK3 (human); compound 10.0 µM): 106%
- residual activity (NUAK1 (human); compound 10.0 µM): 90%
- residual activity (PAK7 (human); compound 10.0 µM): 92%
- residual activity (DYRK1A (human); compound 10.0 µM): 72%
- residual activity (PRKCZ (human); compound 10.0 µM): 94%
- residual activity ([1]; compound 10.0 µM): 97%
- residual activity (LCK (mouse); compound 10.0 µM): 93%
- residual activity (DYRK2 (human); compound 10.0 µM): 107%
- residual activity (NEK6 (human); compound 10.0 µM): 78%
- residual activity (MST4 (human); compound 10.0 µM): 104%
- residual activity (MAP2K6 (human); compound 10.0 µM): 95%
- residual activity (HIPK2 (human); compound 10.0 µM): 97%
- residual activity (CSNK2A1 (human); compound 10.0 µM): 79%
- residual activity (MAPK11 (human); compound 10.0 µM): 101%
- residual activity (PAK6 (human); compound 10.0 µM): 109%
- residual activity (MARK1 (human); compound 10.0 µM): 109%
- residual activity (HIPK1 (human); compound 10.0 µM): 94%
- residual activity (ERBB4 (human)): 105%
- residual activity (CaMK1 (human); compound 10.0 µM): 92%
- residual activity (EEF2K (human); compound 10.0 µM): 79%
- residual activity (HIPK3 (human)): 101%
- residual activity (ROCK2 (rat); compound 10.0 µM): 95%
- residual activity (MAPK14 (human); compound 10.0 µM): 74%
